Ki data for six compounds are collected here from BindingDB's records for PubMed 11916140 (Universit&Agrave, 2001).

Common to all, as to assay: Inhibition Assay
Conditions in all cases: pH 7.4; 25 °C

One assay concerns the target Carbonic anhydrase 2 (Homo sapiens, UniProt P00918). The text has this:
(§1) Inhibition assay using human Carbonic anhydrase I and II and bovine carbonic anhydrase IV.

The target in a further assay is T1, Carbonic anhydrase 4 (Bos taurus, UniProt Q95323).
T1 sequence (Q95323 whole entry): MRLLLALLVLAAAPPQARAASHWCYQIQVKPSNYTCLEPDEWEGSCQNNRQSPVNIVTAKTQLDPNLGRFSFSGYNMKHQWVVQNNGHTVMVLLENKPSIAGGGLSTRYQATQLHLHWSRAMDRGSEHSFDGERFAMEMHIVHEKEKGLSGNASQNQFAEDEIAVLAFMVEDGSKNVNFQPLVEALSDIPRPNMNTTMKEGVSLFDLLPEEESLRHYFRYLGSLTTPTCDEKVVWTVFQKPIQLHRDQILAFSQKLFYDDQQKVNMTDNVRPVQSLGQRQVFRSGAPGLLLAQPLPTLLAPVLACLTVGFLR
From the text: as §1

The next assay has as its target Carbonic anhydrase 1 (Homo sapiens, UniProt P00915).
From the text: as §1

pKi: −log10 of the molar value.

Carbonic anhydrase 1, sequence (P00915 whole entry): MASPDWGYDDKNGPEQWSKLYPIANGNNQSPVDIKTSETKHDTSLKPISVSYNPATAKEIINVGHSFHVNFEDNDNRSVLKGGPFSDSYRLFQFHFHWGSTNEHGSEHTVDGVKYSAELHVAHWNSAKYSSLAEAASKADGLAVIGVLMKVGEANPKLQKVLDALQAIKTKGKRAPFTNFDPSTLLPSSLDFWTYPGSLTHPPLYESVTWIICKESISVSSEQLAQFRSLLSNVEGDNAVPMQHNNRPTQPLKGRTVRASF

For the compound `NS(=O)(=O)OCc1csc(-c2ccc(S(=O)(=O)c3ccc(Br)cc3)cc2)n1` [2-[4-(4-Bromophenylsulfonyl)-Phenyl}-thiazole-4-yl-methyl-sulfamate, 3c], the pKi at Carbonic anhydrase 2 is 7.68; on Carbonic anhydrase 4, 7.27; at Carbonic anhydrase 1 it was < 6.00.
The like results for `NS(=O)(=O)NCc1csc(-c2ccc(S(=O)(=O)c3ccc(Br)cc3)cc2)n1` [2-[4-(4-Bromophenylsulfonyl)-Phenyl}-thiazole-4-yl-methyl-sulfamide, 2c] were, in that order, 7.80, 7.30 and < 6.00.
Regarding `NS(=O)(=O)OCc1csc(-c2ccc(S(=O)(=O)c3ccc(Cl)cc3)cc2)n1` [2-[4-(4-Chlorophenylsulfonyl)-Phenyl}-thiazole-4-yl-methyl-sulfamate, 3b], the pKi on Carbonic anhydrase 2 was 7.52; on Carbonic anhydrase 4, 7.18; on Carbonic anhydrase 1, < 6.00.
On the same counts, the results for `NS(=O)(=O)NCc1csc(-c2ccc(S(=O)(=O)c3ccc(Cl)cc3)cc2)n1` [2-[4-(4-Chlorophenylsulfonyl)-Phenyl}-thiazole-4-yl-methyl-sulfamide, 2b] are 7.62, 7.19 and < 6.00.
On the same counts, the results for `NS(=O)(=O)OCc1csc(-c2ccc(S(=O)(=O)c3ccccc3)cc2)n1` [2-[4-(Phenylsulfonyl)-Phenyl}-thiazole-4-yl-methyl-sulfamate, 3a] are 7.48, 7.06 and < 6.00.
The like results for `NS(=O)(=O)NCc1csc(-c2ccc(S(=O)(=O)c3ccccc3)cc2)n1` [2-[4-(Phenylsulfonyl)-Phenyl}-thiazole-4-yl-methyl-sulfamide, 2a] were, in that order, 7.55, 7.08 and < 6.00.

As usually defined, the pKi is the negative decadic logarithm of the Ki, by convention in mol/L. Low values mean a large Ki, high ones a small Ki.
